Assay results reported in patent US9730906B2, “α-derivatives of cis-monounsaturated fatty acids for use as medicines” (UNIVERSITAT DE LES ILLES BALEARS, priority 2008, dated 2017).

What was measured:
Assay in all cases: Effect of OHOD on cancer cells in culture (Table 2)
Format in all cases: cell-based, human
Design in all cases: key to Anti-tumour effect: + [inhibition of growth]; ++ [total halt of growth]; +++ [total removal of tumour cells]; key to Mechanism of action: P [anti-proliferative]; D [differentiation]; A [apoptosis]
MDA-MB-231 = settings: MDA-MB-231, Breast
Experimental: (§1) Also, a series of α-derivatives of cis-monounsaturated fatty acids were used to investigate their effectiveness in cancer treatment. Two types of experiment were performed. Firstly, the dependency of the anti-tumour effect on concentration was investigated. To perform these experiments, human lung cancer cells (A549) were cultivated in RPMI medium, supplemented with 10% foetal bovine […], 10 mM Hepes (pH 7.4), 2 mM glutamine, 2 g/l bicarbonate, 1 g/l glucose, 100 units/ml penicillin, 0.1 mg/ml streptomycin, 0.25 μg/ml Amphotericin B, at 37° C. and in the presence of 5% CO2. In a first experimental series, these cells were treated with various concentrations (0-400 μM) of OHOD and MOD11 and the number of cells was determined by flow cytometry (FIG. 3A). […] In a second series, the anti-tumour effectiveness on A549 lung cancer cells was investigated at a single concentration (150 μM) and a time of 48 hours (FIG. 3B). […] Obviously, among the previous molecules, some lacked both modifications on the α-carbon and the double bond in cis configuration (EO, HDO, ODO) and had no therapeutic effect.
(§2) In a second experimental series, designed to discover whether these molecules are effective in treatment of different types of tumours, the effect of OHOD at various concentrations on human cells of different types of cancer was studied. These experiments were performed as described before, except that the M220 and HT-29 cell lines were cultured in DMEM medium and the MDA-MB-231 line was incubated in Leibowitz L-15 medium supplemented with 15% foetal bovine […]. […] Where the nature of the tumour process requires, application can be topical (use on the skin of active products for the treatment of melanoma and other cutaneous abnormalities of cancerous nature), which can be considered as cosmetic treatments when attempts are made to correct aesthetic defects.

A118 = settings: A118, Glioma
Experimental: as §1, §2

SH-SY5Y = settings: Neuroblastoma
Experimental: as §1, §2

Jurkat = settings: Lym-Leukaemia
Experimental: as §1, §2

CCCCCCCC/C=C\CCCCCCC(O)C(=O)O (stereo not drawn) [OHOD, α-Hydroxy-cis-Δ9-octadecenoic]
Anti-tumour effect (MDA-MB-231): ++ | Mechanism of action (MDA-MB-231): A | Anti-tumour effect (A118): +++ | Mechanism of action (A118): D | Anti-tumour effect (SH-SY5Y): + | Mechanism of action (SH-SY5Y): P | Anti-tumour effect (Jurkat): +++ | Mechanism of action (Jurkat): A
